# Measurements published in ChEMBL document CHEMBL1125576, “alpha-Keto amide inhibitors of aminopeptidases” (J Med Chem, 1992).
# Tests used:
# [1] = target: T1, Aminopeptidase N (Homo sapiens, UniProt P15144); assay: Compound was tested for binding affinity towards microsomal aminopeptidase; Kii was reported
# [2] = target: Aminopeptidase B (Homo sapiens, UniProt Q9H4A4); assay: Compound was tested for binding affinity towards arginyl aminopeptidase
# [3] = target: T1, Aminopeptidase N; assay: Compound was tested for binding affinity towards microsomal aminopeptidase; Kis was reported
# [4] = target: T1, Aminopeptidase N; assay: Compound was tested for binding affinity towards microsomal aminopeptidase
# Chain of Aminopeptidase B (Q9H4A4 whole entry): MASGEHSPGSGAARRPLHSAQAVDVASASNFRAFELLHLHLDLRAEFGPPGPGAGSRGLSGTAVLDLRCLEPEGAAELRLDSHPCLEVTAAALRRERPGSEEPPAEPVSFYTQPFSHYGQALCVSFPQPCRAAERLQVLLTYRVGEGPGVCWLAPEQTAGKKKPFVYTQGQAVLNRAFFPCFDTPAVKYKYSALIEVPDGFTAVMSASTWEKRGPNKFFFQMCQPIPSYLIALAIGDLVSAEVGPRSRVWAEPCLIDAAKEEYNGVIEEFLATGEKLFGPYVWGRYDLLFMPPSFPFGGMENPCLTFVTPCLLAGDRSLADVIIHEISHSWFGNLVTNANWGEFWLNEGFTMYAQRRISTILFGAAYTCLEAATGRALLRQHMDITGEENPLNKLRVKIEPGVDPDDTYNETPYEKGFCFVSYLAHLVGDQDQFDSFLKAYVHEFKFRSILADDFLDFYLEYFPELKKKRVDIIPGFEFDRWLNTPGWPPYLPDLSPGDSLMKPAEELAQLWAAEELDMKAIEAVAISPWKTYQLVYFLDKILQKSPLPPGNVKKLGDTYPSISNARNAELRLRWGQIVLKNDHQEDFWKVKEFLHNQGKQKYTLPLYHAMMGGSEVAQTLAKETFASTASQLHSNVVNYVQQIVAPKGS
# T1 sequence (P15144 whole entry): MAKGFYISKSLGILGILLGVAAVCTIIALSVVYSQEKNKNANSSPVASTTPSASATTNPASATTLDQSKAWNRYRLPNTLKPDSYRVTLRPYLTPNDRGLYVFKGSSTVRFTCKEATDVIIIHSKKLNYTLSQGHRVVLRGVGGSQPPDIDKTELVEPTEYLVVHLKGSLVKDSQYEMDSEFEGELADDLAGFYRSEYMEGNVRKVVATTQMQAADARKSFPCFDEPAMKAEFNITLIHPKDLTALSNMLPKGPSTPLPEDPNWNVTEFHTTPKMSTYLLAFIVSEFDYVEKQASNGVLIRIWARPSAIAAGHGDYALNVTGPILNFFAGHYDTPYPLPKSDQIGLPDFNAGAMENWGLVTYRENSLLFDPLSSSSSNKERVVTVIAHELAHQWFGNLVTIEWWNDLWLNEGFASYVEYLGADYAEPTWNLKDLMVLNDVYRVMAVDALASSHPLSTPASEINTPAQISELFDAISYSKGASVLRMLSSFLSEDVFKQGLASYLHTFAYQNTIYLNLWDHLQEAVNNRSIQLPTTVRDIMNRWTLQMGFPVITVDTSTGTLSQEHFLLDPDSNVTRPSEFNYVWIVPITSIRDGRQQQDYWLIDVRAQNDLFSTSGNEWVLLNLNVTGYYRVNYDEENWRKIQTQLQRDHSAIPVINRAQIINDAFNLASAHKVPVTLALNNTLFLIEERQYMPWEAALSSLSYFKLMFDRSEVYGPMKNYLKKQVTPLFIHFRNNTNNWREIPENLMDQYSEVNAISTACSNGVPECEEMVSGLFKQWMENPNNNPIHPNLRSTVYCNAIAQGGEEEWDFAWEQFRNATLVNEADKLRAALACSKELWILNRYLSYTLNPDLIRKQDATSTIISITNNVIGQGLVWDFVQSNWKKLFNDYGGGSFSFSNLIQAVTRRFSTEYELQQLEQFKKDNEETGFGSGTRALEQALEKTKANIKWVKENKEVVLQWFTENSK
Structure (SMILES),Ki [1],Ki [2],Ki [3],Ki [4]
CC(C)C[C@H](N)C(=O)CC(Cc1ccccc1)C(=O)O (stereo partly drawn),260 µM,0.17 µM,79 µM,–
CC(C)CCNC(=O)C(=O)C(N)Cc1ccccc1 (stereo not drawn),–,1.5 µM,–,2.5 µM
CC(C)CCNC(=O)[C@@H](O)[C@H](N)Cc1ccccc1,–,39 µM,–,20 µM
CC(C)C[C@H](N)C(=O)CC(C)C(=O)O (stereo partly drawn),940 µM,130 µM,660 µM,–
CC(=O)[C@@H](N)CC(C)C,–,> 1000 µM,–,430 µM

# Results, then the molecule that gave them:
Ki [1],Ki [2],Ki [3],Ki [4],Structure (SMILES)
–,6.5 µM,–,18 µM,CC(C)CCNC(=O)C(=O)[C@H](N)CC(C)C
–,3.2 µM,–,10.5 µM,CC(C)CCNC(=O)C(=O)[C@@H](N)CC(C)C
–,> 300 µM,–,24 µM,CC(C)CCNC(=O)[C@@H](O)[C@H](N)CC(C)C
